Consider 1 substance from patent US10166253B2, “Positively charged co-polymers for use as antimicrobial agents” (priority 2014, dated 2019).

Test [1] concerns E. coli (strain NCTC 10418). As to the kind of experiment: Antimicrobial susceptibility testing by flow cytometry-based assay (LIVE/DEAD BacLight, Syto9/PI). It is filed as cell-based, Escherichia coli. The following applies: 50 μg/ml, 30 minutes. The procedure:
E. coli (strain NCTC 10418), P. aeruginosa (Strain PAO1) and S. aureus (Wood 46, NCTC 7121) cells were grown in 5 mL of Todd Hewitt Broth medium (THB; Sigma-Aldrich). Bacteria were cultivated at 37° C. for 15 h in a 15 mL tube to obtain late-log phase cultures. Bacterial cultures were pelleted at 3096 g for 10 minutes; the supernatant was discarded and bacteria were resuspended in phosphate-buffered saline (PBS) supplemented with 40 mg/ml human albumin to mimic chemical properties of blood. Bacteria were diluted to a standardized inoculum of 10^9 CFU/mL.
Bacteria were treated with GA, LL-37, Piperacillin/Tazobactam or Vancomycin in varying concentrations, i.e. 50, 25, 10 or 2 μg/ml, for 30 minutes. As a positive control, bacteria were treated with 7% isopropanol. Hereafter, bacteria were pelleted at 3096 g for 10 minutes; the supernatant was discarded and bacteria were resuspended in PBS. The antimicrobial effect was tested in a well-established and widely used flow cytometry-based assay (LIVE/DEAD® BacLight™ Bacterial Viability and Counting Kit (L34856), Molecular Probes/Invitrogen) according to manufacturer's manual.
For each bacteria, the flow cytometry-based assay was repeated four times.
Flow cytometry was used to determine the antimicrobial activity of GA and LL-37. The flow cytometry diagrams show the results after treatment with 50 μg/ml LL-37, GA, piperacillin/tazobactam, 7% isopropanol and the untreated control. […] This gating strategy was primarily applied to avoid counting beads in the upper right corner of the FS-SS. […] Thus, a two-color fluorescence assay of bacterial viability, including PI and Syto9 staining, was applied. Syto9 stains all bacteria in a population, i.e. those with intact and those with damaged membranes. In contrast, propidium iodide (PI) penetrates only bacteria with damaged membranes, thereby making quantification of bacterial viability possible.
For orientation: A flow cytometer gives signals particle by particle.

For test [2], the system named is S. aureus (Wood 46, NCTC 7121). As to the kind of experiment: Colony-forming unit (CFU) counting. It is filed as cell-based, Staphylococcus aureus. The following applies: 30 minutes at 37° C. in PBS. The procedure:
Late-log phase E. coli (strain NCTC 10418), P. aeruginosa (strain PAO1, ATCC 15692) and S. aureus (Wood 46, NCTC 7121) were resuspended in PBS and treated with different concentrations of glatiramer acetate (GA) or LL-37 (Innovagen, Lund, Sweden) and incubated on a shaker for 30 minutes at 37° C. Subsequently, a dilution series was performed to achieve a suitable amount of bacteria on the 5% blood agar plates. The 5% blood agar streak plates were cultured at 37° C. for 16 h and the resulting CFUs on the blood agar plates were imaged with a digital camera and counted with the aid of the software ImageJ 1.48v.

Test [3] relates to P. aeruginosa (PAO1). Put plainly: Antimicrobial activity in human serum and plasma (flow cytometry, PI/Syto9). The following applies: P. aeruginosa PAO1 ~10^8 cells/ml. It is filed as cell-based, Pseudomonas aeruginosa. An excerpt: It has been reported that the antimicrobial activity of antimicrobial peptides are inhibited by their binding to different factors in human plasma (Wang, Y., et al., Apolipoprotein A-I binds and inhibits the human antibacterial/cytotoxic peptide LL-37. J Biol Chem, 1998. 273(50): p. 33115-8), serum and is influenced by pH and ion composition (Johansson, J., et al., Conformation-dependent antibacterial activity of the naturally occurring human peptide LL-37. J Biol Chem, 1998. 273(6): p. 3718-24). To investigate the potential of GA for systemic application, bacterial isolates of P. aeruginosa (PAO1, ˜10^8 cells/ml) were incubated with increasing concentrations of GA and compared to LL-37. Bacterial survival and enumeration was evaluated by a flow cytometry bead standard and stained with propidium iodide and Syto9 following procedures as previously described above in the antimicrobial susceptibility testing by flow cytometry-based assay. […] All experiments were performed as four replicates.

Test [4] concerns P. aeruginosa (PAO1). As to the kind of experiment: Transmission electron microscopy of treated bacteria. It is filed as cell-based, Pseudomonas aeruginosa. An excerpt: (§1) Transmission electron microscopy (TEM) was applied to examine the ultrastructural changes in P. aeruginosa (PAO1), S. aureus (Wood 46) and E. coli (NCTC 10418) induced after treatment with GA and LL-37. […] This critical alteration in the outer membrane of E. coli has previously been described as a disintegration of the outer membrane into micelles and vesicle-like structures (Meincken, M., D. L. Holroyd, and M. Rautenbach, Atomic force microscopy study of the effect of antimicrobial peptides on the cell envelope of Escherichia coli. Antimicrob Agents Chemother, 2005. 49(10): p. 4085-92). […] After incubation with LL-37 and GA, we found burst cells, but this observation was most significant after treatment with LL-37 (FIG. 9). Scale bar, 0.5 μm. Experiments were performed as 2 replicates.

Test [5] deals with E. coli (NCTC 10418). As to the kind of experiment: Binding of Alexa Fluor 488-labeled GA to bacteria (MFI by flow cytometry). The arrangement: species or system Escherichia coli. The following applies: PBS + 50 mM NaCl, total salt 200 mM, GA 50 and 10 μg/ml. The procedure:
GA was diluted in freshly made 0.1 M NaHCO3 and labeled with Alexa Fluor 488 according to manufacturer's instruction. Late-log phase E. coli (strain NCTC 10418), P. aeruginosa (strain PAO1, ATCC 15692) and S. aureus (Wood 46, NCTC 7121) were resuspended in PBS or PBS supplemented with 50 mM NaCl; treated with either 50 μg/ml or 10 μg/ml Alexa Fluor® 488-labeled GA and incubated on a shaker at 37° C. for 30 minutes. Hereafter, bacteria were diluted 1:100 in PBS and analyzed on a Novocyte™ flow cytometer.
This constitutes a problem when for example treating patients with cystic fibrosis. These patients have a high salt concentration in their lungs of about 150-200 mM, and it is therefore critical that drugs used for treating these patients are active at such high salt concentrations (Gilljam H et al., Scand J Clin Lab Invest. 1989 April; 49(2):121-4). Therefore, the binding capacity of GA to bacteria resuspended in PBS or in PBS supplemented with 50 mM NaCl. PBS+50 mM NaCl results in a total salt concentration of 200 mM. […]
Mean Fluorescence intensities (MFI) were assessed by flow cytometry to quantify the binding capacity of GA to the bacterial membrane. […]

In test [6] the test system is S. aureus (Wood 46). As to the kind of experiment: Transmission electron microscopy of treated bacteria. It is filed as cell-based, Staphylococcus aureus.
Excerpt: as §1

Regarding Glatiramer acetate [GA], the “percentage of bacteria testing positive for PI” value in test [1] came to 17.7%. In test [1], the “percentage of bacteria testing positive for Syto-9” value was determined as 78.3%. For the same substance, the “antibacterial effect by CFU counting (in words)” value in test [2] was “low antimicrobial impact”. Besides, the “antimicrobial activity in human plasma and serum (in words)” value in test [3] is given as “retains antimicrobial activity”. Further, the “ultrastructural changes (TEM, in words)” value is reported as “dramatically reduced number of P. aeruginosa” in test [4] and “burst cells” in test [6]. Further, the “binding capacity to bacteria (MFI, in words)” value in test [5] was “retained its binding capacity”.
